Here are results for 54 compounds from ChEMBL document CHEMBL5321202, “Design, synthesis and anti-AD effects of dual inhibitor targeting glutaminyl cyclase/GSK-3β” (Eur J Med Chem, 2023).

pIC50: −log10 of the molar value. Activity calls are given as the source filed them. The calls are words filed in the database; no cut-off is given here.

Experiment [1] concerns the target Glycogen synthase kinase-3 beta (Homo sapiens, UniProt P49841). The experiment is described as follows: Inhibition of GSK3beta (unknown origin) activity assessed as fluorescence intensity by ADP-Glo Kinase Assay.
In experiment [2] the target is Glutaminyl-peptide cyclotransferase (Homo sapiens, UniProt Q16769). The experiment is described as follows: Inhibition of human glutaminyl cyclase activity assessed as fluorescence using H-Gln-AMC substrate.
Glutaminyl-peptide cyclotransferase, sequence (Q16769 whole entry): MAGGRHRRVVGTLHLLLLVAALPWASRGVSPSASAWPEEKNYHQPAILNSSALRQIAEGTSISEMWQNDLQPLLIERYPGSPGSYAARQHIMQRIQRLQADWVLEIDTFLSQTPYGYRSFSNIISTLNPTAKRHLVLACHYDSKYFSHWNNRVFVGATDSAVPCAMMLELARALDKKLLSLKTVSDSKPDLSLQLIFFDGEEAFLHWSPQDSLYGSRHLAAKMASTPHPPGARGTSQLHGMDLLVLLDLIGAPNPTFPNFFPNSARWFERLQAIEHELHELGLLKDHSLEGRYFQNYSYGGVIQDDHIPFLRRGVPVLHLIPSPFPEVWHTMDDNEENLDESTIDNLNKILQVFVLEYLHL
Experiment [3] is described as follows: In vivo inhibition of GSK3beta activity in cortex region of 3 x Tg-AD mouse model at 8 mg/kg, ip every 48 hrs once for 45 days by Western blot analysis relative to control. Also on record: scale not given: the % may be the effect or the level left. Format: functional. To be noted: time 45 day. For orientation: A western blot detects proteins with antibodies after separation by electrophoresis.

The species entered for another experiment is Mus musculus. The conditions noted are these: dose 8.0 mg/kg, route ip, time 45.0 day.

Glycogen synthase kinase-3 beta, sequence (P49841 whole entry): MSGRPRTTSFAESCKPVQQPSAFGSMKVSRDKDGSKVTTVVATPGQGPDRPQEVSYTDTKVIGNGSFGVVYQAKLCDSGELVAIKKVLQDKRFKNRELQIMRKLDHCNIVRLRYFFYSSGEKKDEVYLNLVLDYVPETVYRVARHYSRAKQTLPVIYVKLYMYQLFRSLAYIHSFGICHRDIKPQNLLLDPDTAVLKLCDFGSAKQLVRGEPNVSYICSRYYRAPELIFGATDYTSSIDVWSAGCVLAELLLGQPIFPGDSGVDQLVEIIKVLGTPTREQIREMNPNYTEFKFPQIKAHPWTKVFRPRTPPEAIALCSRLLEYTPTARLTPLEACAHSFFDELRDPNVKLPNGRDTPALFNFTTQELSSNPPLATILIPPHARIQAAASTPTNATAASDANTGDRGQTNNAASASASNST

One may read the pIC50 as the IC50 on a negative log10 scale, so that one unit is a factor of ten. With `O=C1NC(=O)C(c2cn(CCCn3ccnc3)c3ccc(Br)cc23)=C1c1cc(C(F)(F)F)cc(C(F)(F)F)c1`, the values for the pIC50 in experiment [1] and in experiment [2] were 6.23 and 5.16, respectively.
Take `COc1ccc2c(c1)c(C1=C(c3ccc(C)cc3)C(=O)NC1=O)cn2CCCn1ccnc1`: the negative logarithm of the IC50 (pIC50) is 7.00 in experiment [1] and 5.05 in experiment [2].
Regarding `COc1ccccc1C1=C(c2cn(CCCn3ccnc3)c3ccc(C)cc23)C(=O)NC1=O`, the pIC50 in experiment [1] was 7.19; in experiment [2], 5.09.
The like results for `COc1ccccc1C1=C(c2cn(CCCn3ccnc3)c3ccc(Br)cc23)C(=O)NC1=O` were, in that order, 5.28 and 5.18.
The like results for `COc1ccc2c(c1)c(C1=C(c3ccc4ccccc4c3)C(=O)NC1=O)cn2CCCn1ccnc1` were, in that order, 7.23 and 5.30.
The like results for `Cc1ccc(C2=C(c3cn(CCCn4ccnc4)c4cc(C)ccc34)C(=O)NC2=O)cc1` were, in that order, 7.32 and 4.93.
As for `O=C1NC(=O)C(c2cn(CCCn3ccnc3)c3cc(Br)ccc23)=C1c1ccccc1F`, the pIC50 was 7.22 in experiment [1] and 5.32 in experiment [2].
Taken in the same sequence, the figures for `COc1ccc2c(c1)c(C1=C(c3ccc(F)cc3)C(=O)NC1=O)cn2CCCn1ccnc1` were 6.82 and 6.44.
On to `Cc1cc(C)c(C2=C(c3cn(CCCn4ccnc4)c4ccc(Br)cc34)C(=O)NC2=O)c(C)c1`, for which the pIC50 in experiment [1] is 6.96; in experiment [2], 5.63.
As for `CC(C)(C)c1ccc(C2=C(c3cn(CCCn4ccnc4)c4ccc(Br)cc34)C(=O)NC2=O)cc1`, the pIC50 was 6.38 in experiment [1] and 5.09 in experiment [2].
The like results for `COc1ccc(C2=C(c3cn(CCCn4ccnc4)c4ccc(OC)cc34)C(=O)NC2=O)cc1` were, in that order, 7.85 and 5.23.
The like results for `O=C1NC(=O)C(c2cn(CCCn3ccnc3)c3ccc(Br)cc23)=C1c1ccc2c(c1)OCO2` were, in that order, 7.36 and 5.60.
The like results for `Cc1ccc2c(c1)c(C1=C(c3ccccc3F)C(=O)NC1=O)cn2CCCn1ccnc1` were, in that order, 4.33 and 5.47.
`COc1ccccc1C1=C(c2cn(CCCn3ccnc3)c3ccccc23)C(=O)NC1=O`: the negative logarithm of the IC50 (pIC50) in experiment [1] is 4.72; in experiment [2] it was 5.14.
`COc1ccc(C2=C(c3cn(CCCn4ccnc4)c4ccc(Br)cc34)C(=O)NC2=O)cc1OC`: the pIC50 in experiment [1] is 7.29; in experiment [2], 5.50.
Consider `COc1ccc(C2=C(c3cn(CCCn4ccnc4)c4ccccc34)C(=O)NC2=O)cc1`, for which the pIC50 in experiment [1] was 7.40; in experiment [2] it was 5.13.
The like results for `O=C1NC(=O)C(c2cn(CCCn3ccnc3)c3ccc(Br)cc23)=C1c1cc(F)c(F)cc1F` were, in that order, 6.92 and 5.63.
For the compound `Cc1ccc2c(C3=C(c4ccccc4[N+](=O)[O-])C(=O)NC3=O)cn(CCCn3ccnc3)c2c1`, the results for the pIC50 in experiment [1] and in experiment [2] were 7.00 and 4.16, respectively.
Taken in the same sequence, the figures for `COc1ccc2c(c1)c(C1=C(c3ccccc3C)C(=O)NC1=O)cn2CCCn1ccnc1` were 5.10 and 5.36.
The like results for `O=C1NC(=O)C(c2cn(CCCn3ccnc3)c3ccccc23)=C1c1ccc2ccccc2c1` were, in that order, 5.04 and 5.45.
In the case of `O=C1NC(=O)C(c2cn(CCCn3ccnc3)c3cc(Br)ccc23)=C1c1ccc2ccccc2c1`, the pIC50 in experiment [1] was 7.00; in experiment [2], 5.40.
Taken in the same sequence, the figures for `Cc1ccc2c(c1)c(C1=C(c3ccccc3[N+](=O)[O-])C(=O)NC1=O)cn2CCCn1ccnc1` were 5.09 and 5.44.
The like results for `O=C1NC(=O)C(c2cn(CCCn3ccnc3)c3ccc(Br)cc23)=C1c1ccccc1` were, in that order, 7.16 and 5.75.
`Cc1ccc2c(c1)c(C1=C(c3ccc4ccccc4c3)C(=O)NC1=O)cn2CCCn1ccnc1`: the figures for the negative logarithm of the IC50 (pIC50) in experiment [1] and in experiment [2] were 5.29 and 5.46, respectively.
Taken in the same sequence, the figures for `Cc1ccc2c(C3=C(c4ccc5ccccc5c4)C(=O)NC3=O)cn(CCCn3ccnc3)c2c1` were 6.85 and 4.97.
Taken in the same sequence, the figures for `Cc1ccccc1C1=C(c2cn(CCCn3ccnc3)c3ccc(Br)cc23)C(=O)NC1=O` were 7.06 and 5.29.
The like results for `Cc1ccc2c(c1)c(C1=C(c3ccc(F)cc3)C(=O)NC1=O)cn2CCCn1ccnc1` were, in that order, 4.63 and 5.36.
Regarding `O=C1NC(=O)C(c2cn(CCCn3ccnc3)c3ccccc23)=C1c1ccccc1F`, the pIC50 is 4.75 in experiment [1] and 5.63 in experiment [2].
Taken in the same sequence, the figures for `Cc1ccc(C2=C(c3cn(CCCn4ccnc4)c4ccc(C)cc34)C(=O)NC2=O)cc1` were 5.11 and 5.26.
The like results for `COc1ccc2c(c1)c(C1=C(c3ccccc3F)C(=O)NC1=O)cn2CCCn1ccnc1` were, in that order, 4.68 and 5.44.
On to `COc1ccc2c(c1)c(C1=C(c3ccccc3[N+](=O)[O-])C(=O)NC1=O)cn2CCCn1ccnc1`, for which the negative logarithm of the IC50 (pIC50) was 7.47 in experiment [1] and 5.00 in experiment [2].
The like results for `COc1ccc(C2=C(c3cn(CCCn4ccnc4)c4cc(Br)ccc34)C(=O)NC2=O)cc1` were, in that order, 6.64 and 5.59.
The like results for `Cc1ccc(C2=C(c3cn(CCCn4ccnc4)c4ccccc34)C(=O)NC2=O)cc1` were, in that order, 4.81 and 5.36.
`O=C1NC(=O)C(c2cn(CCCn3ccnc3)c3cc(Br)ccc23)=C1c1ccc(F)cc1`: the figures for the pIC50 in experiment [1] and in experiment [2] were 6.14 and 5.55, respectively.
Taken in the same sequence, the figures for `O=C1NC(=O)C(c2cn(CCCn3ccnc3)c3ccccc23)=C1c1ccccc1[N+](=O)[O-]` were 4.45 and 5.65.
The like results for `O=C1NC(=O)C(c2cn(CCCn3ccnc3)c3ccc(Br)cc23)=C1c1ccc2ccccc2c1` were, in that order, 7.16 and 5.53.
Turning to `COc1ccc(C2=C(c3cn(CCCn4ccnc4)c4ccc(C)cc34)C(=O)NC2=O)cc1`, the pIC50 in experiment [1] is 4.70; in experiment [2], 5.21.
For the compound `O=C1NC(=O)C(c2cn(CCCn3ccnc3)c3ccccc23)=C1c1ccc(F)cc1`, the pIC50 in experiment [1] was 7.24; in experiment [2], 5.87. Moreover, the Activity in experiment [3] was found to be 73.4%. The inhibition result in the experiment filed under Mus musculus is “Active”.
As to `COc1ccc(C2=C(c3cn(CCCn4ccnc4)c4cc(C)ccc34)C(=O)NC2=O)cc1`, the pIC50 in experiment [1] is 7.01; in experiment [2] it was 5.15.
As to `Cc1ccccc1C1=C(c2cn(CCCn3ccnc3)c3ccccc23)C(=O)NC1=O`, the negative-log IC50 (pIC50) in experiment [1] was 4.57; in experiment [2] it was 5.38.
The like results for `O=C1NC(=O)C(c2cn(CCCn3ccnc3)c3ccccc23)=C1c1c[nH]c2ccccc12` were, in that order, 4.64 and 5.37.
Taken in the same sequence, the figures for `Cc1ccc2c(c1)c(C1=C(c3ccccc3C)C(=O)NC1=O)cn2CCCn1ccnc1` were 7.14 and 5.42.
Taken in the same sequence, the figures for `COc1ccc2c(c1)c(C1=C(c3ccccc3OC)C(=O)NC1=O)cn2CCCn1ccnc1` were 4.70 and 5.61.
For the compound `O=C1NC(=O)C(c2cn(CCCn3ccnc3)c3ccc(Br)cc23)=C1c1ccccc1F`, the pIC50 in experiment [1] is 7.49; in experiment [2], 5.33.
Taken in the same sequence, the figures for `Cc1ccc(C2=C(c3cn(CCCn4ccnc4)c4ccc(Br)cc34)C(=O)NC2=O)cc1` were 6.72 and 5.68.
Taken in the same sequence, the figures for `O=C1NC(=O)C(c2cn(CCCn3ccnc3)c3ccccc23)=C1c1ccccc1` were 7.85 and 5.55.
The like results for `COc1ccc(C2=C(c3cn(CCCn4ccnc4)c4ccc(Br)cc34)C(=O)NC2=O)cc1` were, in that order, 6.96 and 5.63.
For the compound `O=C1NC(=O)C(c2cn(CCCn3ccnc3)c3ccc(Br)cc23)=C1c1cccs1`, the pIC50 in experiment [1] was 7.05; in experiment [2], 5.98.
For the compound `COc1ccc2c(C3=C(c4ccccc4F)C(=O)NC3=O)cn(CCCn3ccnc3)c2c1`, the pIC50 in experiment [1] is 7.96; in experiment [2] it was 4.96.
The like results for `Cc1ccccc1C1=C(c2cn(CCCn3ccnc3)c3cc(Br)ccc23)C(=O)NC1=O` were, in that order, 6.85 and 5.41.
The like results for `O=C1NC(=O)C(c2cn(CCCn3ccnc3)c3ccc(Br)cc23)=C1c1ccccc1[N+](=O)[O-]` were, in that order, 7.18 and 5.37.
The like results for `COc1ccccc1C1=C(c2cn(CCCn3ccnc3)c3cc(Br)ccc23)C(=O)NC1=O` were, in that order, 7.68 and 4.66.
For `O=C1NC(=O)C(c2cn(CCCn3ccnc3)c3ccc(Br)cc23)=C1c1ccc(F)cc1`, the negative logarithm of the IC50 (pIC50) in experiment [1] is 6.85; in experiment [2], 5.59.
Taken in the same sequence, the figures for `Cc1ccc(C2=C(c3cn(CCCn4ccnc4)c4cc(Br)ccc34)C(=O)NC2=O)cc1` were 6.42 and 5.46.
